Data reported in US20210369710A1, “MODULATORS OF MYC FAMILY PROTO-ONCOGENE PROTEIN” (Nalo Therapeutics, priority 2019, published 2021).

What was measured:
MycN Protein = target: T1, MycN Protein (Homo sapiens, UniProt P04198); experiment: Degradation of MycN protein, Western blot band density in cells; assay type: cell-based; conditions: HL-60 or SKNBE2 cells; 6 uL of compound (1 mM) added to 3 mL cells; 6 hours; Western blot band density (ImageJ)
T1 construct: endogenous in cells; host or cells: HL-60 or SKNBE2
T1 sequence (P04198 1-464): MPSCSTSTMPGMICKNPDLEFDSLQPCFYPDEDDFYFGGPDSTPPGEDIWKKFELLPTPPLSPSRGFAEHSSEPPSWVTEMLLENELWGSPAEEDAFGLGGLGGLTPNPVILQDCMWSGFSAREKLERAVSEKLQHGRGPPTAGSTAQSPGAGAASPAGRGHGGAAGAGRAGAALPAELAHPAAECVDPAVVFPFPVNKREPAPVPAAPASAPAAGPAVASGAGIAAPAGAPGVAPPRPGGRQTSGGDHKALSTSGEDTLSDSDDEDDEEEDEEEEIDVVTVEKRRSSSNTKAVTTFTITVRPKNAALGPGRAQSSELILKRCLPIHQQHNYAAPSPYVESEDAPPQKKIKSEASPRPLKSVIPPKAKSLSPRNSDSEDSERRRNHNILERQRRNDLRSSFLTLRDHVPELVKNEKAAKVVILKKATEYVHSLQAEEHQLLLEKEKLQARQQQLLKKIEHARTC
Description: (§1) In a T150 flask was plated either 2×10^6 of HL-60 (human leukemia cell line) or SKNBE2 (neuroblastoma cell line) cells in a total of 30 mL containing Roswell Park Memorial Institute (RPMI) 1640 Medium (Thermo Fisher, Cat. #11875-085), 10% Fetal Bovine Serum (FBS, Thermo Fisher: Cat. #10437-028), 1% Penicillin/streptomycin (Thermo Fisher: Cat. #10378016), and 1% Amophotericin B (Thermo Fisher, Cat. #15290026). The cells were split every 72 hours by reseeding the HL-60 or SKNBE2 cells, and the passage number was noted. It is noteworthy that cell cultures that were above 40 passages were not used, and most experiments were done with cells of less than 30 passages.
(§2) In a 6-well cell culture plate, a total of 3 mL of either 1×10^6 cells/mL of HL-60 or SKNBE2 cells were seeded, resulting in a total of 3×10^6 cells per well. To each well containing 3 mL of either HL-60 or SKNBE2 cell line was added 6 uL of MycN modulating compound (1 mM) and the resulting plate was shaken from left to right, and not swirled. After 6 hours, the cells were placed in a 15 mL falcon tube and spun at 500 Gs at 4° C. in a swinging bucket centrifuge. The medium was then carefully removed without disturbing the pellet. The pellet was then washed with 3 mLs of chilled phosphate buffered saline (PBS) and subjected to the spin cycle. PBS was then removed and the pellet was lysed in 200 uL of radioimmunoprecipitation (RIPA) lysis buffer (Thermo Fisher: Cat. #899000) that is supplemented with protease and phosphatase inhibitors (Thermo Fisher: Cat. #A32959). The cell lysate was then subjected to spinning in a centrifuge for 10 minutes at 13000G at 4° C. The supernatant was then carefully transferred to a fresh eppendorf tube without disturbing the pellet (˜180 uL). The protein concentration of the cell lysate was then determined by using a bicinchoninic acid (BCA assay) according to manufacturer's protocol (Thermo Fisher: Cat. #23227).
(§3) Cell lysate, approximately 25 ug-30 ug, was loaded per well in a 4-20% polyacrylamide gel (Biorad. Cat. #5671094). After running the dye front off of the gel, the gel was transferred to a nitrocellulose membrane (Biorad: Cat. #1704159) using the transblot turbo system (Biorad: Cat. #1704150) according to manufacturer's protocol. After transferring for 30 minutes, the membrane was blocked with 5% BSA for 1 hour at room temperature. The BSA was then washed off and the primary antibody of choice (1:500) was added, and the membrane was incubated with the primary antibody at 4° C. for overnight. The next morning, the primary antibody was removed and the membrane was washed with 1×-TBST for 10 minutes and repeated three more times. Following the last wash, a secondary antibody (Molecular Devices. Cat. #R8209 or R8208) was added at 1:5000 dilution and incubated for 1 hour at room temperature. Following the incubation with the secondary antibody, the membrane was washed with 1×-TBST for 10 minutes and repeated three more times. Following the last wash, the membrane was washed with de-ionized water twice and dried for at least two hours. Once the membrane is completely dry, the Molecular Devices Spectra Max western system was used to observe the bands. The western image was saved and the band density was measured with ImageJ software.

MycC Protein = target: T2, MycC Protein (Homo sapiens, UniProt P01106); experiment: Degradation of MycC protein, Western blot band density in cells; assay type: cell-based; conditions: HL-60 or SKNBE2 cells; 6 uL of compound (1 mM) added to 3 mL cells; 6 hours; Western blot band density (ImageJ)
T2 construct: endogenous in cells; host or cells: HL-60 or SKNBE2
Description: as §1, §2, §3

T2 sequence (P01106 whole entry): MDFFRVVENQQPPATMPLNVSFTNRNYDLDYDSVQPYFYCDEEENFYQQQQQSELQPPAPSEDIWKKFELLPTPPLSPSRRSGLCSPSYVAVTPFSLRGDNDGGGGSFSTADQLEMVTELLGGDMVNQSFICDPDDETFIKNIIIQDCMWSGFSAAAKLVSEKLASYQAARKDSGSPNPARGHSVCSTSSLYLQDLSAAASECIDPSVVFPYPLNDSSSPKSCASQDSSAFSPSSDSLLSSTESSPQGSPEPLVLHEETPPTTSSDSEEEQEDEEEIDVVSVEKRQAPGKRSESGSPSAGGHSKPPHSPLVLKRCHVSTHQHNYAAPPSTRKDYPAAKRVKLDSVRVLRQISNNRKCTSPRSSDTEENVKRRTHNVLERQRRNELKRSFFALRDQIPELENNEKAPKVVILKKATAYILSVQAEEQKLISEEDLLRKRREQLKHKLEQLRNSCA

In the case of `N#Cc1ccc2c(c1)CC(NC(=O)N[C@H]1CC[C@H](Nc3nccc(Nc4cc(C5CCCC5)[nH]n4)n3)CC1)C2` (stereo partly drawn) [Compound 11 (Fraction 2), 1-(5-cyano-2,3-dihydro-1H-inden-2-yl)-3-((1R,4R)-4-((4-((5-cyclopentyl-1H-pyrazol-3-yl)amino)pyrimidin-2-yl)amino)cyclohexyl)urea], the “% Degradation of MycN” value (MycN Protein) is reported as “*** (***: degradation 50-79%)” and the “% Degradation of MycC” value (MycC Protein) is reported as “**** (****: degradation 80-100%)”.

`O=C(NC1CCN(C2COC2)CC1)N[C@H]1CC[C@H](Nc2nccc(Nc3cc(C4CCCC4)[nH]n3)n2)CC1` [Compound 12, 1-((1R,4R)-4-((4-((5-cyclopentyl-1H-pyrazol-3-yl)amino)pyrimidin-2-yl)amino)cyclohexyl)-3-(1-(oxetan-3-yl)piperidin-4-yl)urea] was tested, and the Dmax at 2 µM (MycN Protein) was less than 20% and the Dmax at 2 µM (MycC Protein) was less than 20%.

`CN(c1nccc(Nc2cc(C3CCCC3)[nH]n2)n1)C1CCC(NC(=O)NC2Cc3ccc(C#N)cc3C2)CC1` [Compound 16 (Fraction 1), 1-(5-cyano-2,3-dihydro-1H-inden-2-yl)-3-((1R,4R)-4-((4-((5-cyclopentyl-1H-pyrazol-3-yl)amino)pyrimidin-2-yl)(methyl)amino)cyclohexyl)urea] was tested, and the “% Degradation of MycN” value (MycN Protein) was “*** (***: degradation 50-79%)” and the “% Degradation of MycC” value (MycC Protein) was “**** (****: degradation 80-100%)”.

In the case of `CN(c1nccc(Nc2cc(C3CCCC3)[nH]n2)n1)C1CCC(NC(=O)NC2Cc3ccc(C#N)cc3C2)CC1` [Compound 16 (Fraction 2), 1-(5-cyano-2,3-dihydro-1H-inden-2-yl)-3-((1R,4R)-4-((4-((5-cyclopentyl-1H-pyrazol-3-yl)amino)pyrimidin-2-yl)(methyl)amino)cyclohexyl)urea], the “% Degradation of MycN” value (MycN Protein) is reported as “*** (***: degradation 50-79%)” and the “% Degradation of MycC” value (MycC Protein) is reported as “**** (****: degradation 80-100%)”.

In the case of `Cc1nc(-c2ccc3c(c2)CC(NC(=O)N[C@H]2CC[C@H](Nc4nccc(Nc5cc(C6CCCC6)[nH]n5)n4)CC2)C3)no1` (stereo partly drawn) [Compound 20, 1-((1R,4R)-4-((4-((5-cyclopentyl-1H-pyrazol-3-yl)amino)pyrimidin-2-yl)amino)cyclohexyl)-3-(5-(5-methyl-1,2,4-oxadiazol-3-yl)-2,3-dihydro-1H-inden-2-yl)urea], the Dmax at 2 µM (MycN Protein) is reported as 80 to 100% and the Dmax at 2 µM (MycC Protein) is reported as 80 to 100%.

`N#Cc1ccc2c(c1)CC(NC(=O)N[C@H]1CC[C@H](Nc3nccc(Nc4cc(C5CC5)[nH]n4)n3)CC1)C2` (stereo partly drawn) [Compound 21, 1-(5-cyano-2,3-dihydro-1H-inden-2-yl)-3-((1R,4R)-4-((4-((5-cyclopropyl-1H-pyrazol-3-yl)amino)pyrimidin-2-yl)amino)cyclohexyl)urea] gave a Dmax at 2 µM (MycN Protein) of 20 to 49% and a Dmax at 2 µM (MycC Protein) of less than 20%.

`O=C(NC1CCS(=O)(=O)CC1)N[C@H]1CC[C@H](Nc2nccc(Nc3cc(C4CCCC4)[nH]n3)n2)CC1` [Compound 24] was tested, and the Dmax at 2 µM (MycN Protein) was less than 20% and the Dmax at 2 µM (MycC Protein) was 20 to 49%.

In the case of `O=C(NC1CCCS(=O)(=O)C1)N[C@H]1CC[C@H](Nc2nccc(Nc3cc(C4CCCC4)[nH]n3)n2)CC1` (stereo partly drawn) [Compound 25], the Dmax at 2 µM (MycN Protein) is reported as less than 20% and the Dmax at 2 µM (MycC Protein) is reported as less than 20%.

`CS(=O)(=O)[C@H]1CCCC(NC(=O)N[C@H]2CC[C@H](Nc3nccc(Nc4cc(C5CCCC5)[nH]n4)n3)CC2)C1` (stereo partly drawn) [Compound 26] was tested, and the Dmax at 2 µM (MycN Protein) was 20 to 49% and the Dmax at 2 µM (MycC Protein) was less than 20%.

`Cc1cc(Nc2ccnc(N[C@H]3CC[C@H](NC(=O)N[C@H]4CC[C@H](S(C)(=O)=O)CC4)CC3)n2)n[nH]1` [Compound 32] gave a Dmax at 2 µM (MycN Protein) of less than 20% and a Dmax at 2 µM (MycC Protein) of less than 20%.

For `O=C(NC1CS(=O)(=O)C1)N[C@H]1CC[C@H](Nc2nccc(Nc3cc(C4CCCC4)[nH]n3)n2)CC1` [Compound 34], the Dmax at 2 µM (MycN Protein) was less than 20% and the Dmax at 2 µM (MycC Protein) was 50 to 79%.

With `O=C(N[C@@H]1CCC[C@H](C(F)(F)F)C1)N[C@H]1CC[C@H](Nc2nccc(Nc3cc(C4CCCC4)[nH]n3)n2)CC1` [Compound 35, 1-((1R,4R)-4-((4-((5-cyclopentyl-1H-pyrazol-3-yl)amino)pyrimidin-2-yl)amino)cyclohexyl)-3-((1R,3S/1S,3R)-3-(trifluoromethyl)cyclohexyl)urea] the Dmax at 2 µM (MycN Protein) was 80 to 100% and the Dmax at 2 µM (MycC Protein) was 20 to 49%.

`O=C(NC1CCC(N2CCOC2=O)CC1)N[C@H]1CC[C@H](Nc2nccc(Nc3cc(C4CCCC4)[nH]n3)n2)CC1` (stereo partly drawn) [Compound 37, 1-((1R,4R)-4-((4-((5-cyclopentyl-1H-pyrazol-3-yl)amino)pyrimidin-2-yl)amino)cyclohexyl)-3-(4-(2-oxooxazolidin-3-yl)cyclohexyl)urea] showed a Dmax at 2 µM (MycN Protein) of less than 20% and a Dmax at 2 µM (MycC Protein) of less than 20%.

For `CC1(NC(=O)N[C@H]2CC[C@H](Nc3nccc(Nc4cc(C5CCCC5)[nH]n4)n3)CC2)CCOCC1` [Compound 38, 1-((1R,4R)-4-((4-((5-cyclopentyl-1H-pyrazol-3-yl)amino)pyrimidin-2-yl)amino)cyclohexyl)-3-(4-methyltetrahydro-2H-pyran-4-yl)urea], the Dmax at 2 µM (MycN Protein) was 20 to 49% and the Dmax at 2 µM (MycC Protein) was 50 to 79%.

With `O=C(Nc1cccc(C(F)(F)F)c1)N[C@H]1CC[C@H](Nc2nccc(Nc3cc(C4CCCC4)[nH]n3)n2)CC1` [Compound 39, 1-((1R,4R)-4-((4-((5-cyclopentyl-1H-pyrazol-3-yl)amino)pyrimidin-2-yl)amino)cyclohexyl)-3-(3-(trifluoromethyl)phenyl)urea] the Dmax at 2 µM (MycN Protein) was 50 to 79% and the Dmax at 2 µM (MycC Protein) was 20 to 49%.

`O=C(Nc1cccc(C(F)(F)F)c1)N[C@H]1CC[C@@H](Nc2nccc(Nc3cc(C4CCCC4)[nH]n3)n2)CC1` [Compound 40, 1-((1S,4S)-4-((4-((5-cyclopentyl-1H-pyrazol-3-yl)amino)pyrimidin-2-yl)amino)cyclohexyl)-3-(3-(trifluoromethyl)phenyl)urea] gave a Dmax at 2 µM (MycN Protein) of 50 to 79% and a Dmax at 2 µM (MycC Protein) of 50 to 79%.

`COCCNC(=O)NC1CCC(Nc2nccc(Nc3cc(C4CCCC4)[nH]n3)n2)CC1` [Compound 43, 1-((1R,4R)-4-((4-((5-cyclopentyl-1H-pyrazol-3-yl)amino)pyrimidin-2-yl)amino)cyclohexyl)-3-(2-methoxyethyl)urea] showed a Dmax at 2 µM (MycN Protein) of 20 to 49% and a Dmax at 2 µM (MycC Protein) of 20 to 49%.

With `CO[C@H]1C[C@H](NC(=O)NC2CCC(Nc3nccc(Nc4cc(C5CCCC5)[nH]n4)n3)CC2)C1` (stereo partly drawn) [Compound 44, 1-((1R,4R)-4-((4-((5-cyclopentyl-1H-pyrazol-3-yl)amino)pyrimidin-2-yl)amino)cyclohexyl)-3-((1R,3R)-3-methoxycyclobutyl)urea] the Dmax at 2 µM (MycN Protein) was less than 20% and the Dmax at 2 µM (MycC Protein) was 20 to 49%.

In the case of `O=C(NC1COC1)N[C@H]1CC[C@H](Nc2nccc(Nc3cc(C4CCCC4)[nH]n3)n2)CC1` [Compound 46], the Dmax at 2 µM (MycN Protein) is reported as 20 to 49% and the Dmax at 2 µM (MycC Protein) is reported as less than 20%.

`O=C(NC1CC2(COC2)C1)N[C@H]1CC[C@H](Nc2nccc(Nc3cc(C4CCCC4)[nH]n3)n2)CC1` [Compound 47] gave a Dmax at 2 µM (MycN Protein) of less than 20% and a Dmax at 2 µM (MycC Protein) of less than 20%.

With `CC(=O)N1CC(NC(=O)N[C@H]2CC[C@H](Nc3nccc(Nc4cc(C5CCCC5)[nH]n4)n3)CC2)C1` [Compound 48, 1-(1-acetylazetidin-3-yl)-3-((1R,4R)-4-((4-((5-cyclopentyl-1H-pyrazol-3-yl)amino)pyrimidin-2-yl)amino)cyclohexyl)urea] the Dmax at 2 µM (MycN Protein) was less than 20% and the Dmax at 2 µM (MycC Protein) was 20 to 49%.
